22 molecules from patent US10442796B2, “2,3,5-substituted thiophene compound as protein kinase inhibitor” (KOREA INSTITUTE OF SCIENCE AND TECHNOLOGY, priority 2016, dated 2019) can be followed below.

One assay concerns the target T1, FLT3-D835Y Ba/F3 cells (Homo sapiens, UniProt P36888, D835Y, cells depend on it).
T1 sequence (P36888 1-993 D835Y): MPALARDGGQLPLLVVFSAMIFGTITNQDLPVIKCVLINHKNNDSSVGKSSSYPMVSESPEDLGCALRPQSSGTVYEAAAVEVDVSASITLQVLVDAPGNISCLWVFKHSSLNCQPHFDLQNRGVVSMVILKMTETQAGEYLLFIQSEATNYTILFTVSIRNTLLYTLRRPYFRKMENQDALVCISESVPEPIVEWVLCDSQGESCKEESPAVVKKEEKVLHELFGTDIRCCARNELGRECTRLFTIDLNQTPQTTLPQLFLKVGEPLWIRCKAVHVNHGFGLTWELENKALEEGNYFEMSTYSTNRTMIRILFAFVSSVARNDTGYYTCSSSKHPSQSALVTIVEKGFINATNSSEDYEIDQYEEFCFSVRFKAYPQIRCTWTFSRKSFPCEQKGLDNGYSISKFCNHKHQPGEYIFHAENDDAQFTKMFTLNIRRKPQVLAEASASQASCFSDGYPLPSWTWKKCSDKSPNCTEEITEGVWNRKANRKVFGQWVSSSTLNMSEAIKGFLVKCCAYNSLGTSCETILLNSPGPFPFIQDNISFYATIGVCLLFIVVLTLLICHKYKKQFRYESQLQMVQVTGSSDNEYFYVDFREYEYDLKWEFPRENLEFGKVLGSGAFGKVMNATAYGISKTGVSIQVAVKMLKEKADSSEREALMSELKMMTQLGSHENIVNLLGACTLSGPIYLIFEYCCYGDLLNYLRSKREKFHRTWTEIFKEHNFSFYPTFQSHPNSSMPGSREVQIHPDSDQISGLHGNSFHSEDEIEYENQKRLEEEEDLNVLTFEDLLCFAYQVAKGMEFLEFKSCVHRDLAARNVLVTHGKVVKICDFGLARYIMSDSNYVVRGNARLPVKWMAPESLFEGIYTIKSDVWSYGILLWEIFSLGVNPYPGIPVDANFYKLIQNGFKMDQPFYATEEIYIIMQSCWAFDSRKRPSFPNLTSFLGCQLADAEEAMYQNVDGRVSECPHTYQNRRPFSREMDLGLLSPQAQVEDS
The assay can be described thus: Growth inhibitory activity against Ba/F3 cell line. Format: cell-based. The following applies: Ba/F3 expressing FLT3-D835Y; 72 hours; cell titer glo; read-out: IC50 (uM) FLT3-D835Y. The gist of the method: (§1)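 Ba/F3 cells carrying FLT3 mutants grown in RPMI with 10% FBS, exposed 72 h to ten 3-fold dilutions of compound starting from 1 mM DMSO stock. Viability read by CellTiter-Glo luminescence; GI50 fitted from signal versus final concentration.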
A general note: In ATP-based viability assays light output follows the ATP content of the culture.

Assay [1] deals with T2, FLT3-ITD-F691L-D835Y Ba/F3 cells (Homo sapiens, UniProt P36888, F691L/D835Y, cells depend on it, form not given).
T2 sequence (P36888 1-993 F691L/D835Y): T1 sequence (P36888 1-993 D835Y) with F691L
The assay can be described thus: Growth inhibitory activity against Ba/F3 cell line. The conditions noted are these: Ba/F3 expressing FLT3-ITD-F691L-D835Y; 72 hours; cell titer glo; read-out: IC50 (uM) FLT3-ITD-F691L-D835Y. Format: cell-based. In short, it runs like this:
as §1

SMILES strings stand for the structures. Numbering of substitutions follows the chain as printed. Where a name gives a salt, the structure may show the parent alone.

Turning to `NC(=O)Nc1cc(C#Cc2ccccc2)sc1C(=O)N[C@H]1CCCNC1` [Example 2, (S)-5-(phenylethynyl)-N-(piperidin-3-yl)-3-ureidothiophene-2-carboxamide], the GI50 on FLT3-D835Y Ba/F3 cells was 0.002 µM; in assay [1], under 0.001 µM.

In the case of `NC(=O)Nc1cc(C#Cc2cccnc2)sc1C(=O)N[C@H]1CCCNC1` [Example 3, (S)—N-(piperidin-3-yl)-5-(pyridin-3-ylethynyl)-3-ureidothiophene-2-carboxamide], the GI50 at FLT3-D835Y Ba/F3 cells is 0.05 µM; in assay [1], under 0.004 µM.

As for `NC(=O)Nc1cc(C#Cc2ccncc2)sc1C(=O)N[C@H]1CCCNC1` [Example 4, (S)—N-(piperidin-3-yl)-5-(pyridin-4-ylethynyl)-3-ureidothiophene-2-carboxamide], the results for the GI50 (on FLT3-D835Y Ba/F3 cells; in assay [1]) were 0.408 µM and 0.01 µM, respectively.

Regarding `NC(=O)Nc1cc(C#Cc2cccc([N+](=O)[O-])c2)sc1C(=O)N[C@H]1CCCNC1` [Example 5, (S)-5-((3-nitrophenyl)ethynyl)-N-(piperidin-3-yl)-3-ureidothiophene-2-carboxamide], the GI50 on FLT3-D835Y Ba/F3 cells was 0.039 µM; in assay [1], under 0.004 µM.

For the molecule `N#Cc1cccc(C#Cc2cc(NC(N)=O)c(C(=O)N[C@H]3CCCNC3)s2)c1` [Example 6, (S)-5-((3-cyanophenyl)ethynyl)-N-(piperidin-3-yl)-3-ureidothiophene-2-carboxamide], the GI50 on FLT3-D835Y Ba/F3 cells was 0.041 µM; in assay [1], under 0.004 µM.

Consider `NC(=O)Nc1cc(C#Cc2ccc([N+](=O)[O-])cc2)sc1C(=O)N[C@H]1CCCNC1` [Example 7, (S)-5-((4-nitrophenyl)ethynyl)-N-(piperidin-3-yl)-3-ureidothiophene-2-carboxamide], for which the values for the GI50 (on FLT3-D835Y Ba/F3 cells; in assay [1]) were 0.07 µM and under 0.004 µM, respectively.

For the molecule `NC(=O)Nc1cc(C#Cc2ccc(Cl)cc2)sc1C(=O)N[C@H]1CCCNC1` [Example 8, (S)-5-((4-chlorophenyl)ethynyl)-N-(piperidin-3-yl)-3-ureidothiophene-2-carboxamide], the GI50 was 0.01 µM on FLT3-D835Y Ba/F3 cells and under 0.001 µM in assay [1].

Regarding `NC(=O)Nc1cc(C#Cc2ccc(F)cc2)sc1C(=O)N[C@H]1CCCNC1` [Example 9, (S)-5-((4-fluorophenyl)ethynyl)-N-(piperidin-3-yl)-3-ureidothiophene-2-carboxamide], the GI50 on FLT3-D835Y Ba/F3 cells is 0.003 µM; in assay [1], under 0.001 µM.

Turning to `NC(=O)Nc1cc(C#Cc2ccccn2)sc1C(=O)N[C@H]1CCCNC1` [Example 10, (S)—N-(piperidin-3-yl)-5-(pyridin-2-ylethynyl)-3-ureidothiophene-2-carboxamide], the values for the GI50 (on FLT3-D835Y Ba/F3 cells; in assay [1]) were 0.041 µM and 0.004 µM, respectively.

As to `N#Cc1ccc(C#Cc2cc(NC(N)=O)c(C(=O)N[C@H]3CCCNC3)s2)cc1` [Example 11, (S)-5-((4-cyanophenyl)ethynyl)-N-(piperidin-3-yl)-3-ureidothiophene-2-carboxamide], the GI50 was 0.003 µM on FLT3-D835Y Ba/F3 cells and under 0.001 µM in assay [1].

In the case of `NC(=O)Nc1cc(C#Cc2n[nH]c3ccccc23)sc1C(=O)N[C@H]1CCCNC1` [Example 12, (S)-5-((1H-indazol-3-yl)ethynyl)-N-(piperidin-3-yl)-3-ureidothiophene-2-carboxamide], the GI50 is 0.289 µM at FLT3-D835Y Ba/F3 cells and 0.027 µM in assay [1].

As to `NC(=O)Nc1cc(C#Cc2ccc(F)nc2)sc1C(=O)N[C@H]1CCCNC1` [Example 13, (S)-5-((6-fluoropyridin-3-yl)ethynyl)-N-(piperidin-3-yl)-3-ureidothiophene-2-carboxamide], the GI50 was 0.014 µM on FLT3-D835Y Ba/F3 cells and 0.004 µM in assay [1].

For the molecule `NC(=O)Nc1cc(C#Cc2ccc(F)c(F)c2)sc1C(=O)N[C@H]1CCCNC1` [Example 14, (S)-5-((3,4-difluorophenyl)ethynyl)-N-(piperidin-3-yl)-3-ureidothiophene-2-carboxamide], the values for the GI50 (at FLT3-D835Y Ba/F3 cells; in assay [1]) were 0.005 µM and under 0.001 µM, respectively.

Take `Cn1cc(C#Cc2cc(NC(N)=O)c(C(=O)N[C@H]3CCCNC3)s2)cn1` [Example 15, (S)-5-((l-methyl-1H-pyrazol-4-yl)ethynyl)-N-(piperidin-3-yl)-3-ureidothiophene-2-carboxamide trifluoroacetate]: the GI50 came out at 0.268 µM at FLT3-D835Y Ba/F3 cells and 0.009 µM in assay [1].

As for `NC(=O)Nc1cc(C#Cc2ccc(C(F)(F)F)cc2)sc1C(=O)N[C@H]1CCCNC1` [Example 16, ((S)—N-(piperidin-3-yl)-5-((4-(trifluoromethyl)phenyl)ethynyl)-3-ureidothiophene-2-carboxamide trifluoroacetate], the GI50 turned out to be 0.197 µM at FLT3-D835Y Ba/F3 cells and 0.004 µM in assay [1].

As to `NC(=O)Nc1cc(C#Cc2ccc(C(F)(F)F)nc2)sc1C(=O)N[C@H]1CCCNC1` [Example 17, (S)—N-(piperidin-3-yl)-5-((6-(trifluoromethyl)pyridin-3-yl)ethynyl)-3-ureidothiophene-2-carboxamide], the GI50 on FLT3-D835Y Ba/F3 cells is 0.064 µM; in assay [1] it was under 0.004 µM.

For `COC(=O)c1ccc(C#Cc2cc(NC(N)=O)c(C(=O)N[C@H]3CCCNC3)s2)cc1` [Example 18, methyl (S)-4-((5-(piperidin-3-ylcarbamoyl)-4-ureidothiophen-2-yl)ethynyl)benzoate trifluoroacetate], the figures for the GI50 (at FLT3-D835Y Ba/F3 cells; in assay [1]) were 0.011 µM and under 0.001 µM, respectively.

With `NC(=O)Nc1cc(C#Cc2ccnc(F)c2)sc1C(=O)N[C@H]1CCCNC1` [Example 21, (S)-5-((2-fluoropyridin-4-yl)ethynyl)-N-(piperidin-3-yl)-3-ureidothiophene-2-carboxamide], the GI50 at FLT3-D835Y Ba/F3 cells is 0.041 µM; in assay [1], under 0.004 µM.

Take `CS(=O)(=O)N1CCC(n2cc(C#Cc3cc(NC(N)=O)c(C(=O)N[C@H]4CCCNC4)s3)cn2)CC1` [Example 23, (S)-5-((1-(1-(methylsulfonyl)piperidin-4-yl)-1H-pyrazol-4-yl)ethynyl)-N-(piperidin-3-yl)-3-ureidothiophene-2-carboxamide]: the GI50 at FLT3-D835Y Ba/F3 cells was 0.18 µM; in assay [1], 0.02 µM.

On to `Cc1ccc(C#Cc2cc(NC(N)=O)c(C(=O)N[C@H]3CCCNC3)s2)cc1` [Example 24, (S)—N-(piperidin-3-yl)-5-(p-tolylethynyl)-3-ureidothiophene-2-carboxamide], for which the figures for the GI50 (at FLT3-D835Y Ba/F3 cells; in assay [1]) were 0.039 µM and 0.002 µM, respectively.

For the molecule `Cn1cc(C#Cc2cc(NC(N)=O)c(C(=O)NC3CCNC3)s2)cn1` (centres unmarked) [Example 39, 5-((1-methyl-1H-pyrazol-4-yl)ethynyl)-N-(pyrrolidin-3-yl)-3-ureidothiophene-2-carboxamide trifluoroacetate], the GI50 is 34 µM at FLT3-D835Y Ba/F3 cells and 1.24 µM in assay [1].

On to `NC(=O)Nc1cc(C#Cc2cccc(F)c2)sc1C(=O)NC1CCNC1` (centres unmarked) [Example 40, 5-((3-fluorophenyl)ethynyl)-N-(pyrrolidin-3-yl)-3-ureidothiophene-2-carboxamide], for which the values for the GI50 (on FLT3-D835Y Ba/F3 cells; in assay [1]) were 0.925 µM and 0.079 µM, respectively.
